Holding throughout (assay): growth of human tumour cells (NCI), 48 h
In assay [1] the test system is UACC-257.
For assay [2], the system named is MOLT-4.
The subject of assay [3] is UO-31.
Assay [4] concerns U-251.
Assay [5] deals with 786-0.
Assay [6] has as its system EKVX.
For assay [7], the system named is K562.
Assay [8] has as its system UACC-62.
The test system of assay [9] is NCI-H226.
Assay [10] has as its system NCI-H460.
Assay [11] concerns HOP-62.
In assay [12] the test system is SK-OV-3.
For assay [13], the system named is HT-29.
In assay [14] the test system is COLO 205.
The test system of assay [15] is ACHN.
Assay [16] relates to PC-3.
The subject of assay [17] is Malme-3M.
Assay [18] deals with OVCAR-5.
Assay [19] has as its system OVCAR-3.
Assay [20] deals with A498.

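Tested at 5 concentrations; 48 h exposure; 96-well plates; endpoints linearly interpolated, else capped at highest concentration. Abbreviation: GI50, concentration required for 50% inhibition of growth.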 The source made the active and inactive calls. Cut-off read from the data, not from the text of the source: active = GI50 up to about 1.1 µM and inactive = higher. A value given as a limit tells only on which side of the number the result lay.

In the case of `NC(CO)C(=O)NCC(=O)O` (stereo not given), the GI50 in [1], in assay [2], in assay [3], in assay [4], in assay [5] and in assay [6] was > 100 µM (inactive) throughout. Moreover, the GI50 in assay [7], in assay [8], in assay [9], in assay [10], in assay [11] and in assay [12] was > 100 µM (inactive) in each case. For the same molecule, the GI50 in assay [13], in [14], in assay [15], in [16], in assay [17] and in [18] was > 100 µM (inactive) each time. Further, the GI50 in [19] and in assay [20] was > 100 µM (inactive) throughout.
For `[O-]/[N+](=N/c1ncc(-c2ccccc2)cn1)c1ncc(-c2ccccc2)cn1`, the GI50 was > 100 µM (inactive) in assay [1]; > 64.6 µM (inactive) in assay [2]; > 66.1 µM (inactive) in assay [3]; 44.1 µM (inactive) in assay [4]; 99.5 µM (inactive) in [5]; 63.5 µM (inactive) in [6]. The GI50 in [7] was 52.8 µM (inactive); in assay [8] it was > 100 µM (inactive); in assay [9], > 94.8 µM (inactive); in [10], > 100 µM (inactive); in [11], > 100 µM (inactive); in assay [12], > 100 µM (inactive). The GI50 in [13] is > 78 µM (inactive); in assay [14], > 100 µM (inactive); in assay [15] it was > 100 µM (inactive); in [16] it was 92.7 µM (inactive); in assay [17], 32.2 µM (inactive); in [18], > 100 µM (inactive). Besides, the GI50 in [19] is > 83.8 µM (inactive); in assay [20], > 100 µM (inactive).
For the molecule `CN1CCCOC(c2ccc([N+](=O)[O-])cc2)O1` (stereo not given), the GI50 in [1], in assay [2], in assay [3], in assay [4], in [5] and in [6] was > 100 µM (inactive) in each case. For the same molecule, the GI50 in [7], in assay [8], in assay [9], in [10], in assay [11] and in assay [12] was > 100 µM (inactive) throughout. For the same molecule, the GI50 in assay [13], in assay [14], in [15], in assay [16], in assay [17] and in assay [18] was > 100 µM (inactive) throughout. In addition, the GI50 in [19] and in assay [20] was > 100 µM (inactive) in each case.
On to `Nc1ncnc2c1ncn2C1C=C(CO)C(O)C1O` (stereo not given), for which the GI50 in assay [1] was 1.35 µM (inactive); in [2] it was 0.249 µM (active); in [3], 0.41 µM (active); in assay [4], 10.4 µM (inactive); in [5], 4.17 µM (inactive); in [6], 25.8 µM (inactive). The GI50 is 0.0452 µM (active) in assay [7]; 3.56 µM (inactive) in [8]; 22.4 µM (inactive) in assay [9]; 0.637 µM (active) in assay [10]; 3.26 µM (inactive) in [11]; 8.18 µM (inactive) in assay [12]. Moreover, the GI50 in [13] is 2.06 µM (inactive); in assay [14] it was 3.32 µM (inactive); in assay [15] it was 4.48 µM (inactive); in assay [16], 6.92 µM (inactive); in assay [17], 5.33 µM (inactive); in assay [18], 7.5 µM (inactive). Also, the values for the GI50 in assay [19] and in assay [20] were 5.01 µM (inactive) and 15.9 µM (inactive), respectively.
Consider `O=C(O)CCS/C(=C\C(SCCC(=O)O)c1ccc(Cl)cc1)c1ccc(Cl)cc1` (stereo not given), for which the GI50 in assay [1] is > 100 µM (inactive); in assay [2], 37.2 µM (inactive); in [3], 78 µM (inactive); in [4], 33.5 µM (inactive); in [5], 78.9 µM (inactive); in assay [6], 62.5 µM (inactive). Besides, the GI50 was 35.1 µM (inactive) in [7]; 18.4 µM (inactive) in assay [8]; 69 µM (inactive) in assay [9]; 50.1 µM (inactive) in assay [10]; 37.5 µM (inactive) in assay [11]; > 100 µM (inactive) in assay [12]. Further, the GI50 in assay [13] is 43.6 µM (inactive); in assay [14] it was 21.4 µM (inactive); in assay [15], 46.3 µM (inactive); in [16] it was 61 µM (inactive); in assay [17] it was 76.4 µM (inactive); in [18], > 100 µM (inactive). Besides, the results for the GI50 in assay [19] and in [20] were 21.6 µM (inactive) and 19.7 µM (inactive), respectively.
`CC[C@@H]1CC[C@@H]2[C@H](CC[C@]3(C)[C@@H](OC(C)=O)CC[C@@H]23)[C@H]1COC(C)=O`: the GI50 in assay [1] is 29.5 µM (inactive); in [2] it was 16 µM (inactive); in assay [3] it was > 100 µM (inactive); in [4], 19.5 µM (inactive); in assay [5], 45.1 µM (inactive); in [6] it was 31.6 µM (inactive). The GI50 is 17.6 µM (inactive) in assay [7]; 18.1 µM (inactive) in assay [8]; 23.1 µM (inactive) in [9]; 19.9 µM (inactive) in [10]; 30.4 µM (inactive) in assay [11]; 35.2 µM (inactive) in assay [12]. Also, the GI50 in assay [13] was 18.2 µM (inactive); in [14] it was 19.1 µM (inactive); in assay [15], 53.8 µM (inactive); in [16], 30.1 µM (inactive); in assay [17], 18.4 µM (inactive); in assay [18], 20.1 µM (inactive). Also, the GI50 in assay [19] was 17.4 µM (inactive); in [20], 26 µM (inactive).
In the case of `CN(C)/C=C/c1nnnn1-c1ccc(I)cc1`, the GI50 in assay [1] was 27 µM (inactive); in assay [2] it was 15.1 µM (inactive); in assay [3], 17.6 µM (inactive); in assay [4] it was 11.9 µM (inactive); in assay [5], 35.1 µM (inactive); in assay [6], 21.6 µM (inactive). Moreover, the GI50 in assay [7] is 19 µM (inactive); in assay [8] it was 12.4 µM (inactive); in assay [9] it was 22.8 µM (inactive); in [10] it was 31.1 µM (inactive); in assay [11] it was 31.8 µM (inactive); in [12], 18.1 µM (inactive). Also, the GI50 is 22.9 µM (inactive) in assay [13]; > 100 µM (inactive) in assay [14]; 22 µM (inactive) in assay [15]; 16.6 µM (inactive) in assay [16]; 21 µM (inactive) in [17]; 23.7 µM (inactive) in assay [18]. For the same molecule, the GI50 was 23.6 µM (inactive) in assay [19] and 40.8 µM (inactive) in [20].
As to `CCCCCC(/C=C/[C@@H]1CC(=O)C[C@H]1O[Si](C)(C)C(C)(C)C)OCOCCOC` (stereo not given in full), the GI50 is 3.68 µM (inactive) in [1]; 1.75 µM (inactive) in [2]; 2.42 µM (inactive) in assay [3]; 2.52 µM (inactive) in [4]; 3.74 µM (inactive) in assay [5]; 6.31 µM (inactive) in assay [6]. Further, the GI50 is 2.4 µM (inactive) in [7]; 2.7 µM (inactive) in [8]; 5.48 µM (inactive) in assay [9]; 17.2 µM (inactive) in [10]; 15.5 µM (inactive) in [11]; 17 µM (inactive) in assay [12]. Also, the GI50 is 3.48 µM (inactive) in [13]; 5.2 µM (inactive) in assay [14]; 2.96 µM (inactive) in [15]; 4.16 µM (inactive) in assay [16]; 2.35 µM (inactive) in assay [17]; 10 µM (inactive) in assay [18]. In addition, the GI50 was 3.93 µM (inactive) in assay [19] and 11.9 µM (inactive) in [20].
`Cc1nc2cc(/N=N/c3c(C)noc3C)ccc2[nH]1`: the GI50 is 44.1 µM (inactive) in [1]; 17.9 µM (inactive) in [2]; 13.9 µM (inactive) in [3]; 28.4 µM (inactive) in [4]; 28.1 µM (inactive) in assay [5]; 18.2 µM (inactive) in assay [6]. The GI50 is 35.6 µM (inactive) in [7]; 27 µM (inactive) in assay [8]; > 100 µM (inactive) in [9]; 21.8 µM (inactive) in [10]; 27.1 µM (inactive) in assay [11]; 18.9 µM (inactive) in assay [12]. Further, the GI50 in assay [13] was 17.7 µM (inactive); in [14], 15.1 µM (inactive); in assay [15], 25.1 µM (inactive); in assay [16], 27.6 µM (inactive); in [17] it was 25.9 µM (inactive); in assay [18], 28 µM (inactive). The GI50 in assay [19] is 18.1 µM (inactive); in [20], 11.1 µM (inactive).
Consider `COc1ccc(C(=O)N=C2N(c3ccccc3)C(=N/c3ccccc3)/C(=N\c3ccccc3)N2c2ccccc2)cc1`, for which the GI50 in [1] is 48.2 µM (inactive); in assay [2], > 100 µM (inactive); in assay [3], > 100 µM (inactive); in assay [4], 19.1 µM (inactive); in assay [5], 17.9 µM (inactive); in assay [6] it was 48.8 µM (inactive). Further, the GI50 in assay [7] is > 100 µM (inactive); in assay [8] it was 37.1 µM (inactive); in assay [9] it was 29.9 µM (inactive); in assay [10], 47.1 µM (inactive); in assay [11], 8.63 µM (inactive); in assay [12], 33.7 µM (inactive). Also, the GI50 in assay [13] is > 95.3 µM (inactive); in assay [14] it was > 100 µM (inactive); in assay [15] it was 22.5 µM (inactive); in assay [16] it was 16.8 µM (inactive); in assay [17] it was 20.6 µM (inactive); in [18], > 75.7 µM (inactive). The GI50 was > 100 µM (inactive) in [19] and 19.2 µM (inactive) in [20].

Values taken from ChEMBL document CHEMBL1201862, “PubChem BioAssay data set” (2004).
